# Measurements published in US20090203716A1, “Pyrimidine low molecular weight ligands for modulating hormone receptors” (The Government of the United States of America as …, priority 2006, published 2009).
# “Also recorded” adds a separate entry of the source.
# Key:
# human LHCG receptor = target: T1, human LHCG receptor (Homo sapiens, UniProt P22888); assay: intracellular cAMP accumulation, agonism at LHCGR stably expressed in HEK EM 293 cells; type: cell-based; conditions: for % Max. Resp. @ LHCGR in μM: % of maximum response of LHCGR to LH (1000 ng/ml); for EC50: read-out: EC50 (LHCGR) in μM [95% C.I.], cAMP, HEK EM 293 cells, dose response 0-100 μM compound
# T1 construct: expressed in transfected cells
# T1 sequence (P22888 27-699): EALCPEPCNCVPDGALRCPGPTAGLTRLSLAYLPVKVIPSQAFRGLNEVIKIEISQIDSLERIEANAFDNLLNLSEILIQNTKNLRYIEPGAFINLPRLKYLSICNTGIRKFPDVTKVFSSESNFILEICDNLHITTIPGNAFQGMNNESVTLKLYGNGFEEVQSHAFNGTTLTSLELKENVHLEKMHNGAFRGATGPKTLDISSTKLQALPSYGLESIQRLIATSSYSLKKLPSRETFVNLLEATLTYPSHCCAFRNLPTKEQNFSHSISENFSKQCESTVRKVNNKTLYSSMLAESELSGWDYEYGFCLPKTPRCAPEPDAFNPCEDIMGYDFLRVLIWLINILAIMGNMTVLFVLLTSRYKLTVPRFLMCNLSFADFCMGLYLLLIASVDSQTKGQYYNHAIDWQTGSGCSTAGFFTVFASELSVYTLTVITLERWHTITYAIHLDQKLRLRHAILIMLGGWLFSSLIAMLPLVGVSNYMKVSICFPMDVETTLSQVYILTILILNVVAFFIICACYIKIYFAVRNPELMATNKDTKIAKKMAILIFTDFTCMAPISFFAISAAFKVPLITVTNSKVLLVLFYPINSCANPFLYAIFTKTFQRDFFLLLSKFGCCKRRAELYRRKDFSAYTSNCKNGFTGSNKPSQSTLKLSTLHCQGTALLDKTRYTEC
# Protocol: (§1) With reference to Table 1, exemplary disclosed compounds were evaluated against human TSH receptor and human LHCG receptor that were stably expressed in HEK 293 EM cells as previously described by Libert et al. (Biochem. Biophys. Res. Commun. 1989, 165, 1250-1255); and by Schulz et al. (Mol. Endocrinol. 1999, 13, 181-190). Cell surface expression of TSH receptor and LHCG receptor were determined via FACS analysis (Kleinau, G.; Jäschke, H.; Neumann, S.; Lättig, S.; Paschke, R.; Krause, G. J. Biol. Chem. 2004, 279, 51590-51600).
# Following aspiration of the medium after incubation with compounds, cells were lysed using lysis buffer 1 of the cAMP Biotrak Enzymeimmunoassay (EIA) System (Amersham Biosciences). The cAMP content of the cell lysate was determined using the manufacturer's protocol. […] The potency (EC50) was obtained from dose response curves (0-100 μM compound) by data analysis with GraphPad Prism 4 for Windows. […] The data are presented as mean±SEM of two independent experiments, each performed in duplicate.
# (§2) Transiently transfected cells were cultured for 48 hours before the cAMP assay. HEK-EM 293 cells stably expressing TSHR, LHCGR or FSHR were seeded into 24-well plates with a density of 2.2×10^5 cells/well 24 hours before the cAMP assay. After removal of growth medium, cells were incubated for 1 hour in HBSS (Cellgro) with 10 mM HEPES (Cellgro) containing 1 mM 3-isobutyl-1-methylxanthine (IBMX) (Sigma) and the ligand of interest in a humidified 5% CO2 incubator at 37° C. The intracellular cAMP content was determined with the cAMP Biotrak Enzymeimmunoassay (EIA) System (GE Healthcare). Data were analyzed using GraphPad Prism 4 for Windows. Receptor expression was measured as described in Jaschke et al., J Biol Chem 281:9841-9844.
# human TSH receptor = target: T2, human TSH receptor (Homo sapiens, UniProt P16473); assay: intracellular cAMP accumulation, agonism at TSHR stably expressed in HEK EM 293 cells; type: cell-based; conditions: for % Max. Resp. @ TSHR in μM: % of maximum response of TSHR to TSH (100 mU/ml), * estimated maximum response at 100 μM compound; for EC50: cAMP, HEK EM 293 cells, dose response 0-100 μM compound, ** estimated EC50, no plateau
# T2 construct: expressed in transfected cells
# T2 sequence (P16473 21-764): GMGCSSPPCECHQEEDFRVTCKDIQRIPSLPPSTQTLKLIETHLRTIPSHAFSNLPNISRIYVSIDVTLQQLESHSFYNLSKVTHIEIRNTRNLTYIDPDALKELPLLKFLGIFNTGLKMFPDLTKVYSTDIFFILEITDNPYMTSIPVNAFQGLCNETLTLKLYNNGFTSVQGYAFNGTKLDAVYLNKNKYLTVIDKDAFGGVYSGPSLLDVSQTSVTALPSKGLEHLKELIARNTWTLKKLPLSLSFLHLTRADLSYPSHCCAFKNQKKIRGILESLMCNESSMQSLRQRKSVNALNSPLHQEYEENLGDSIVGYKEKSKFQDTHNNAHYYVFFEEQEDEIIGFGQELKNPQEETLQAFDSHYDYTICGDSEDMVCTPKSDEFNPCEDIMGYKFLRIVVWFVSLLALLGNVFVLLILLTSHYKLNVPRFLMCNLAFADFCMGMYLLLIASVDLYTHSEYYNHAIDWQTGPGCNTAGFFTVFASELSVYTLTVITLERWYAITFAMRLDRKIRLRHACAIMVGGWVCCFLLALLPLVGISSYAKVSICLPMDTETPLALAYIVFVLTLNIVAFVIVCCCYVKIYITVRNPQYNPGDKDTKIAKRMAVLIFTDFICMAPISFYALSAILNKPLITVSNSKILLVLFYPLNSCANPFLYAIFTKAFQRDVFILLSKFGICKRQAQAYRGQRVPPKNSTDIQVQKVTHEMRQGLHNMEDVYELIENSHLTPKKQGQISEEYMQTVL
# Protocol: as §1, with “51590-51600). Agonism of compounds 3-20 were determined via measurement of intracellular cyclic AMP accumulation. […] For example, […] certain compounds disclosed herein exerted no discernible effect on the FSH receptor.” for “51590-51600).”
# Cells were cultured for 48 h in 24-well plates before incubation for 1 h in serum-free DMEM containing 1 mM 3-isobutyl-1-methylxanthine (IBMX) (SIGMA) and bovine TSH (1.8 μM) (SIGMA) or human LH (1000 ng/ml) (Dr. A. Parlow, NIDDK National Hormone and Pituitary Program) or compounds 3-19 (0-100 μM) in a humidified 5% CO2 incubator. Following aspiration of the medium after incubation with compounds, cells were lysed using lysis buffer 1 of the cAMP Biotrak Enzymeimmunoassay (EIA) System (Amersham Biosciences). The cAMP content of the cell lysate was determined using the manufacturer's protocol. The efficacy of receptor activation by small molecule modulators is expressed as % of maximum response of LHCG receptor or TSH receptor to LH or TSH, respectively. The potency (EC50) was obtained from dose response curves (0-100 μM compound) by data analysis with GraphPad Prism 4 for Windows. With reference to FIG. 1, intracellular cAMP production was determined in response to 100 μM of each compound and is expressed as % of maximum response of TSHR/LHCGR to TSH (100 mU/ml)/LH (1000 ng/ml). The data are presented as mean±SEM of two independent experiments, each performed in duplicate.
# as §2
# TSHR = TSHR (Homo sapiens, UniProt P16473); assay: inhibition of TSH-mediated cAMP response in HEK-EM 293 cells stably expressing TSHR; type: cell-based; design: expressed in transfected cells
# Sequence of TSHR (P16473 21-764): as above
# Protocol: as §2
# The TSH-mediated cAMP response of TSHR was inhibited by a maximum of 70.8±5.5% at 30 μM compound 52. […] Compound 52 has no activity at FSHR.
# To exclude the possibility that compound 52 might be acting independently of TSHR by building aggregates with TSH, thereby inhibiting the TSH-induced response, tests were conducted for a possible aggregation between these two ligands. Compound 52 and TSH were preincubated for up to 15 minutes before addition to HEK-EM 293 cells stably expressing TSHR. […] There was no difference in the antagonistic effect whether TSH and compound 52 were preincubated together or not (data not shown) thereby excluding the possibility that its effect was caused by aggregation with TSH.
# solubility = type: physicochemical; conditions: compared to compound 52
Compound,% Max. Resp. @ LHCGR in μM (human LHCG receptor) [%],% Max. Resp. @ TSHR in μM (human TSH receptor),EC50 (human LHCG receptor) [µM],antagonistic activity at TSHR in cAMP assay (TSHR),solubility (solubility),EC50 (human TSH receptor) [nM]
"COc1cccc(-c2nc(SC)nc3sc(C(=O)NNC(=O)OC(C)(C)C)c(N)c23)c1 [Compound 11, N′-Boc-5-amino-4-(3-methoxyphenyl)-2-(methylthio)thieno[2,3-d]pyrimidine-6-carbohydrazide]",2.4 ± 0.5,1.9 ± 0.4%,,,,
"COc1cccc(-c2nc(SC)nc3sc(C(=O)NCC#N)c(N)c23)c1 [Compound 13, 5-amino-N-(cyanomethyl)-4-(3-methoxyphenyl)-2-(methylthio)thieno[2,3-d]pyrimidine-6-carboxamide]",20.3 ± 2.1,3.6 ± 0.6%,,,,
"CSc1nc(-c2cccc(F)c2)c2c(N)c(C(=O)NC(C)(C)C)sc2n1 [Compound 18, N-tert-butyl-5-amino-4-(3-fluorophenyl)-2-(methylthio)thieno[2,3-d]pyrimidine-6-carboxamide]",,8.1 ± 1.7%,1.2,,,
"CCNC(=O)c1sc2nc(SC)nc(-c3cccc(OC)c3)c2c1N [Compound 6, 5-amino-N-(ethyl)-4-(3-methoxyphenyl)-2-(methylthio)thieno[2,3-d]pyrimidine-6-carboxamide]",26.9 ± 4.8,2.3 ± 0.4%,,,,
"CSc1nc(-c2cccc(O)c2)c2c(N)c(C(=O)NC(C)(C)C)sc2n1 [Compound 19, N-tert-butyl-5-amino-4-(3-hydroxyphenyl)-2-(methylthio)thieno[2,3-d]pyrimidine-6-carboxamide]",63.9 ± 14.2,11.2 ± 1.0%,1.9,,,
"COc1cccc(-c2nc(SC)nc3sc(C(=O)NNC(C)(C)C)c(N)c23)c1 [Compound 10, N′-tert-butyl-5-amino-4-(3-methoxyphenyl)-2-(methylthio)thieno[2,3-d]pyrimidine-6-carbohydrazide]",6.0 ± 3.1,6.4 ± 0.6%,,,,
C[S+]([O-])c1nc(-c2ccc(/C=C/CS(C)(=O)=O)cc2)c2c(N)c(C(=O)NC(C)(C)C)sc2n1 (centres unmarked) [Compound 52/2],,,,antagonist activity similar to compound 52; also recorded: antagonistic activity,improved solubility,
"COc1cccc(-c2nc(SC)nc3sc(C(=O)NN(C)C)c(N)c23)c1 [Compound 9, 5-amino-4-(3-methoxyphenyl)-N′N′-dimethyl-2-(methylthio)thieno[2,3-d]pyrimidine-6-carbohydrazide]",11.0 ± 1.5,4.0 ± 0.1%,,,,
C[S+]([O-])C/C=C/c1ccc(-c2nc([S+](C)[O-])nc3sc(C(=O)NC(C)(C)C)c(N)c23)cc1 (centres unmarked) [Compound 52/3],,,,antagonist activity similar to compound 52; also recorded: antagonistic activity,improved solubility,
CSc1nc(-c2ccc(/C=C/CS(C)(=O)=O)cc2)c2c(N)c(C(=O)NC(C)(C)C)sc2n1 [Compound 52/1],,,,no antagonistic activity,,
"COc1cccc(-c2nc(SC)nc3sc(C(=O)NCc4ccccc4)c(N)c23)c1 [Compound 14, 5-amino-N-benzyl-4-(3-methoxyphenyl)-2-(methylthio)thieno[2,3-d]pyrimidine-6-carboxamide]",7.8 ± 2.7,3.0 ± 1.2%,,,,
"COc1cccc(-c2nc(SC)nc3sc(C(=O)OC(C)(C)C)c(N)c23)c1 [Compound 5, tert-butyl-5-amino-4-(3-methoxyphenyl)-2-(methylthio)thieno[2,3-d]pyrimidine-6-carboxylate]",23.8 ± 3.3,>30.3* %,1.1,,,11900
"COc1cccc(-c2nc(SC)nc3sc(C(=O)NC(C)(C)C)c(N)c23)c1F [Compound 17, N-tert-butyl-5-amino-4-(2-fluoro-3-methoxyphenyl)-2-(methylthio)thieno[2,3-d]pyrimidine-6-carboxamide]",46.3 ± 6.6,>24.0* %,1.5,,,11500
"COc1cccc(-c2nc(SC)nc3sc(C(=O)NC(C)(C)C)c(N)c23)c1OC [Compound 16, N-tert-butyl-5-amino-4-(2,3-dimethoxyphenyl)-2-(methylthio)thieno[2,3-d]pyrimidine-6-carboxamide]",50.1 ± 3.6,3.0 ± 0.9%,0.8,,,
"COc1cccc(-c2nc(SC)nc3sc(C(=O)NN)c(N)c23)c1 [Compound 8, 5-amino-4-(3-methoxyphenyl)-2-(methylthio)thieno[2,3-d]pyrimidine-6-carbohydrazide]",8.5 ± 3.6,6.1 ± 0.8%,,,,
"COc1cccc(-c2nc(SC)nc3sc(C(=O)NCCc4ccccc4)c(N)c23)c1 [Compound 15, 5-amino-4-(3-methoxyphenyl)-2-(methylthio)-N-phenethylthieno[2,3-d]pyrimidine-6-carboxamide]",25.6 ± 5.4,4.3 ± 0.4%,,,,
"COc1cccc(-c2nc(SC)nc3sc(C(=O)NCCO)c(N)c23)c1 [Compound 12, 5-amino-4-(3-methoxyphenyl)-N-(2-hydroxyethyl)-2-(methylthio)thieno[2,3-d]pyrimidine-6-carboxamide]",20.5 ± 2.7,2.9 ± 0.5%,,,,
"CCOC(=O)c1sc2nc(SC)nc(-c3cccc(OC)c3)c2c1N [Compound 4, ethyl-5-amino-4-(3-methoxyphenyl)-2-(methylthio)thieno[2,3-d]pyrimidine-6-carboxylate]",4.2 ± 2.2,1.5 ± 0.2%,,,,
"COc1cccc(-c2nc(SC)nc3sc(C(=O)N(C)C(C)(C)C)c(N)c23)c1 [Compound 7, N-tert-butyl-5-amino-4-(3-methoxyphenyl)-N-methyl-2-(methylthio)thieno[2,3-d]pyrimidine-6-carboxamide]",47.8 ± 2.8,3.6 ± 1.9%,0.8,,,
